Data taken from article PMC11853379, “Glioblastoma Cell Migration, Invasion and Vasculogenic Mimicry Downmodulated by Novel uPAcyclin Derivatives” (Cells, 2025).
Like-named read-outs stand apart in the source and are kept apart here. Positions of bridges follow the written chain, without caps; N, C: chain ends. Residues, ends and D or L forms follow the SMILES beside them.

Legend:
[1] = system: U87-MG cells; format: cell-based, human
Procedure: (§1) The migration and invasion assays were performed with Boyden chambers, according to De Vincenzo et al., using 11 × 10^4 U87-MG and U251-MG glioblastoma cells/sample pre-treated for 40 min at 37 °C with the indicated effectors and then allowed to migrate for 3 h or to invade for 5 h at 37 °C toward 5% FBS in DMEM/0.1% BSA. The migrated or invaded cells were reported as a percentage of basal random migration or invasion and analyzed as reported in the Statistical Analyses section. The migration and invasion experiments were conducted in triplicate.
(§2) Figure 1 Binding of Ala peptides to U87-MG cells and effect of uPAcyclin and Ala peptides on U87-MG cellular migration. (A) A total of 2 × 10^6 U87-MG cells were pre-incubated for 30 min at 4 °C with increasing concentrations of unlabeled uPAcyclin and Ala peptides and then exposed to 50 nM of FITC-uPAcyclin for 2 h at 4 °C. Cell surface-associated fluorescence, as percentage of the sample with […], is shown. Experiments were carried out in duplicate, and the data shown here are representative of three independent experiments. (B) 11 × 10^4 U87-MG cells/sample were pre-treated for 40 min at 37 °C with increasing concentrations of uPAcyclin or the indicated Ala peptides and then assayed in Boyden chambers for 5% FBS-dependent migration for 3 h at 37 °C. At the end of incubation, the filters were processed as described in the Methods section. For clarity here and in the following Figures, Ala-x indicates the peptide with substituted x-position. For both assays, the p-values are in the range of 0.005 ≤ p ≤ 0.001, apart from [Ala1]uPAcyclin in the migration assay with p ≤ 0.05.
Alterations of the amino acid sequence may affect the peptide structure and may, in turn, alter its function. To test for differences in the inhibitory activity of the Ala-substituted peptides, U87-MG glioblastoma cells were subjected to a directional migration assay in Boyden chambers towards FBS, in the presence or in the absence of the indicated concentrations of uPAcyclin or one of its Ala-scan derivatives (Figure 1B).

[2] = system: U251-MG cells; format: cell-based, human
Procedure: as §1
Figure 4 Binding and biological effect of selected Ala peptides on U251-MG migration and invasion. (A) A binding assay was performed using U251-MG cells, as described in the legend of Figure 1. (B) The directional migration toward 10% FBS of U251-MG cells was performed in Boyden chambers, in the presence of the indicated peptides, as described in the legend of Figure 1. (C) An invasion assay was performed toward 5% FBS of U251-MG cells in Boyden chambers, in the presence of the indicated peptides. For all migration and invasion assays, the p-values are ≤0.001, apart from [Ala^1]uPAcyclin with a p ≤ 0.05.

[3] = biological target: T1, αV integrin on U251-MG cells (Homo sapiens, UniProt P06756); test: Receptor binding assay: displacement of FITC-uPAcyclin from U251-MG cells; conditions: competition with FITC-uPAcyclin
T1 construct: endogenous in cells; host or cells: U251-MG human glioblastoma cells (acid-treated, 4 °C)
T1 sequence (P06756 31-889 limits assumed): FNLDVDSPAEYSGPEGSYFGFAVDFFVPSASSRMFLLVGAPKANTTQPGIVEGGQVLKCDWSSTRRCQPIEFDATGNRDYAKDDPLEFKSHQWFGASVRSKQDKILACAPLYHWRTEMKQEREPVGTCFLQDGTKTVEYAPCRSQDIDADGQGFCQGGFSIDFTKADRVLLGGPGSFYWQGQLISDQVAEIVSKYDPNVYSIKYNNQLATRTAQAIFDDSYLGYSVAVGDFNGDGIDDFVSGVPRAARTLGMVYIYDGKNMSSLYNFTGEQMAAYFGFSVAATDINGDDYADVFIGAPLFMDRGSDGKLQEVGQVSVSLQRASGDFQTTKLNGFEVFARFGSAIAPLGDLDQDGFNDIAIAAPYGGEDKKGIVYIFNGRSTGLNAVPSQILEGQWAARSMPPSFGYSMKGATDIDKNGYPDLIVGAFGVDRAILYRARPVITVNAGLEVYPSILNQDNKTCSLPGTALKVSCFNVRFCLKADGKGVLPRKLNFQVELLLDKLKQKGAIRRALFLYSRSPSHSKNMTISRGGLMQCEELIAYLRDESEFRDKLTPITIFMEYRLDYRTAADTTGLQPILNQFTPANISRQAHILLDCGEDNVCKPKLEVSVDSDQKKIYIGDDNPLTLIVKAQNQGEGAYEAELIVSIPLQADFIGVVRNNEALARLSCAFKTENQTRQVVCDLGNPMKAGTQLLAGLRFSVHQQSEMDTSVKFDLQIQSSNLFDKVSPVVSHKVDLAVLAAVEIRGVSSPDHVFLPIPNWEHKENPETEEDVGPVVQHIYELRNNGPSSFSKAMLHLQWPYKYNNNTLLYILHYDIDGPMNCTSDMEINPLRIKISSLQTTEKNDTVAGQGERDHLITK
T1 sequence (P06756 891-1048 limits assumed): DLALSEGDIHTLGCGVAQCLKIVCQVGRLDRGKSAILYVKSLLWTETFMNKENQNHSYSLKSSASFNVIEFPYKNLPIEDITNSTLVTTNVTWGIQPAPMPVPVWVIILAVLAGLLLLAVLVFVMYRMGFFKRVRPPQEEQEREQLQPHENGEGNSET
Procedure: (§3) The U87-MG and U251-MG cell lines were harvested and acid-treated, as described. Briefly, 2 × 10^6 cells/sample were pre-incubated for 30 min at 4 °C with uPAcyclin and Ala peptides and subsequently exposed to 50 nM FITC-uPAcyclin for 2 h at 4 °C, as described. The experiments were performed three times, with duplicate samples, and analyzed as reported in the statistical analysis.
To rule out the possibility that the effects observed may be restricted to a single cell line, testing was extended to the U251-MG cell line, derived from a human glioblastoma with a mesenchymal-like phenotype with a lower proliferative capacity than U87-MG cells. This cell line was analyzed for the ability to specifically bind the FITC-uPAcyclin, in the presence of increasing concentrations of unlabeled [Ala^2,Ala^5]uPAcyclin, together with the parent uPAcyclin and the selected cyclopeptides [Ala^1]uPAcyclin, [Ala^4]uPAcyclin and [Ala^8]uPAcyclin (Figure 4A). In particular, [Ala^1]uPAcyclin and [Ala^8]uPAcyclin were selected for their contrasting affinity/activity observed on U87-MG glioblastoma cells, while [Ala^4]uPAcyclin was chosen to confirm the importance of Ser4 both in binding and in the anti-migratory activity of uPAcyclin.
Figure 4 Binding and biological effect of selected Ala peptides on U251-MG migration and invasion. […]

[4] = biological target: T2, integrin αV receptors on the GBM cell surface (U87-MG cells) (Homo sapiens, UniProt P06756); test: Receptor binding assay: displacement of FITC-uPAcyclin from U87-MG living cells
T2 construct: endogenous in cells; host or cells: U87-MG human glioblastoma cells (living, acid-treated, 4 °C)
T2 sequence (P06756 31-889 limits assumed): as the sequence (P06756 31-889 limits assumed) above
T2 sequence (P06756 891-1048 limits assumed): as the sequence (P06756 891-1048 limits assumed) above
Procedure: as §3
This assay confirmed that FITC-uPAcyclin binds specifically to both GBM cell lines and to the HEK-293/αV, whereas little interaction is detected with HEK-293 cells (Supporting Information, Table S7). […] To investigate the ability of novel Ala-scan peptides to compete with uPAcyclin for binding to integrin αV receptors on the GBM cell surface, the specific interaction of FITC-conjugated uPAcyclin with U87-MG living cells was tested via a receptor binding assay. U87-MG GBM cells were pre-incubated with increasing concentrations of unlabeled Ala peptides and then exposed to FITC-uPAcyclin (Figure 1A). […] When considering the relative Kdapp of uPAcyclin variants, it can be inferred that the replacement either of each of the three prolines (Pro^2, Pro^5, Pro^6) or Lys^1 increases the binding affinity of the resulting peptide compared to uPAcyclin. In contrast, the Ala mutation of other residues is detrimental to the peptide binding affinity.
as §2

| SMILES | IC50 of migration lower / inhibitory activity higher than parental uPAcyclin ([1]; U87-MG migration) | inhibitory activity on cell migration, comparison (in words) ([1]; U87-MG migration toward 5% FBS) | IC50 of migration lower than the single variants ([1]; U87-MG migration, versus [Ala^2]uPAcyclin and [Ala^5]uPAcyclin) | migration reduced to (percentage of basal random migration) ([1]; U87-MG, 5% FBS, concentration not given) | IC50 ([2]; 3 h) | IC50 ([2]; 5 h) | binding to U251-MG cells (in words) [3] | concentration at which dose-dependent inhibitory activity starts ([1]; U87-MG migration toward 5% FBS) | effect on FBS-induced directional migration (in words) ([1]; U87-MG, 1 µM peptide) | Kd ([4]; competition with 50 nM FITC-uPAcyclin, 2 × 10^6 U87-MG cells, pre-incubation 30 min 4 °C, then 2 h 4 °C, three experiments in duplicate, read-out: Kdapp) | binding affinity compared to uPAcyclin (in words) ([4]; displacement of FITC-uPAcyclin, U87-MG cells) | inhibition of invasion (in words) ([2]; U251-MG) | inhibition of migration (in words) ([2]; U251-MG) |
| --- | --- | --- | --- | --- | --- | --- | --- | --- | --- | --- | --- | --- | --- |
| CC(=O)N[C@@H](CCCCN)C(=O)N[C@@H](C)C(=O)N[C@H]1CCC(=O)NCCCC[C@@H](C(N)=O)NC(=O)[C@H](CC(C)C)NC(=O)[C@H](CCC(=O)O)NC(=O)[C@H](CCC(=O)O)NC(=O)[C@@H]2CCCN2C(=O)[C@H](C)NC(=O)[C@H](CO)NC1=O [[Ala^2,Ala^5]uPAcyclin] (Ac-KAESAPEELK-NH2; lactam 3-10) | ~100 fold | most potent peptide of the series | about 10 fold | about 70% | < 0.001 nM | < 0.001 nM | binds with the highest affinity |  |  |  |  |  |  |
| CC(=O)N[C@@H](CCCCN)C(=O)N1CCC[C@H]1C(=O)N[C@H]1CCC(=O)NCCCC[C@@H](C(N)=O)NC(=O)[C@H](CC(C)C)NC(=O)[C@H](CCC(=O)O)NC(=O)[C@H](CCC(=O)O)NC(=O)[C@@H]2CCCN2C(=O)[C@@H]2CCCN2C(=O)[C@H](CO)NC1=O [uPAcyclin] (Ac-KPESPPEELK-NH2; lactam 3-10) |  |  |  |  |  |  | dose-dependent decrease in cell-associated fluorescence | 1 pM | abolishes FBS-induced directional migration | ~0.1 nM |  |  |  |
| CC(=O)N[C@@H](CCCCN)C(=O)N1CCC[C@H]1C(=O)N[C@H]1CCC(=O)NCCCC[C@@H](C(N)=O)NC(=O)[C@H](CC(C)C)NC(=O)[C@H](C)NC(=O)[C@H](CCC(=O)O)NC(=O)[C@@H]2CCCN2C(=O)[C@@H]2CCCN2C(=O)[C@H](CO)NC1=O [[Ala^8]uPAcyclin] (Ac-KPESPPEALK-NH2; lactam 3-10) |  |  |  |  |  |  |  |  |  |  | reduced affinity | most active among the Ala variants | most active among the Ala variants |
